Measured values from the NIST ThermoML archive (doi:10.1016/j.jct.2008.05.005).
± gives the expanded uncertainty stated by the source.

Test: xn = mol fraction of the nth substance listed
Details: Liquid, Vibrating tube method

CCCCn1cc[n+](C)c1.F[B-](F)(F)F [1-butyl-3-methylimidazolium tetrafluoroborate] + CO
mass density [kg/m3]
Details | 298.15 K | 323.15 K
210 kPa, x1 = 0.9102 | 1203.93 ± 0.44 | –
230 kPa, x1 = 0.9102 | – | 1185.2 ± 0.43
240 kPa, x1 = 0.0087 | – | 781 ± 0.49
240 kPa, x1 = 0.2626 | 1065.61 ± 0.32 | –
240 kPa, x1 = 0.7501 | – | 1168.14 ± 0.38
250 kPa, x1 = 0.4988 | 1144.91 ± 0.34 | –
260 kPa, x1 = 0.1302 | – | 952.36 ± 0.35
300 kPa, x1 = 0.1302 | 975.12 ± 0.35 | –
310 kPa, x1 = 0.7501 | 1186.96 ± 0.39 | –
380 kPa, x1 = 0.0087 | 804.76 ± 0.48 | –
400 kPa, x1 = 0.0433 | 867.22 ± 0.42 | –
440 kPa, x1 = 0.0433 | – | 844.94 ± 0.41
670 kPa, x1 = 0.2626 | – | 1046.2 ± 0.32
780 kPa, x1 = 0.4988 | – | 1126.41 ± 0.33
4380 kPa, x1 = 0.0087 | 808.51 ± 0.48 | –
5040 kPa, x1 = 0.9102 | 1206.16 ± 0.47 | 1187.61 ± 0.45
5070 kPa, x1 = 0.7501 | – | 1170.7 ± 0.4
5080 kPa, x1 = 0.7501 | 1189.2 ± 0.41 | –
5210 kPa, x1 = 0.2626 | 1068.88 ± 0.32 | –
5270 kPa, x1 = 0.0433 | 871.22 ± 0.4 | –
5310 kPa, x1 = 0.4988 | 1147.71 ± 0.35 | 1128.87 ± 0.34
5320 kPa, x1 = 0.2626 | – | 1049.53 ± 0.32
5430 kPa, x1 = 0.0433 | – | 849.82 ± 0.48
5440 kPa, x1 = 0.0087 | – | 786.6 ± 0.5
5890 kPa, x1 = 0.1302 | 979.15 ± 0.35 | –
6310 kPa, x1 = 0.1302 | – | 957.29 ± 0.32
10030 kPa, x1 = 0.7501 | 1191.5 ± 0.43 | –
10030 kPa, x1 = 0.9102 | 1208.41 ± 0.5 | 1190.07 ± 0.48
10050 kPa, x1 = 0.4988 | 1150.25 ± 0.36 | –
10080 kPa, x1 = 0.2626 | 1071.94 ± 0.33 | –
10260 kPa, x1 = 0.0433 | 875.17 ± 0.42 | –
10840 kPa, x1 = 0.1302 | 982.54 ± 0.35 | –
10910 kPa, x1 = 0.0087 | 814.38 ± 0.49 | –
15190 kPa, x1 = 0.0433 | 878.92 ± 0.42 | –
15310 kPa, x1 = 0.9102 | 1210.74 ± 0.53 | –
15330 kPa, x1 = 0.0087 | 818.18 ± 0.5 | –
15380 kPa, x1 = 0.2626 | 1075.12 ± 0.33 | –
15420 kPa, x1 = 0.7501 | 1193.96 ± 0.46 | –
15620 kPa, x1 = 0.4988 | 1153.13 ± 0.38 | –
15680 kPa, x1 = 0.1302 | 985.71 ± 0.35 | –
19940 kPa, x1 = 0.0087 | 821.99 ± 0.51 | –
20020 kPa, x1 = 0.0433 | 882.44 ± 0.49 | –
20070 kPa, x1 = 0.9102 | 1212.8 ± 0.56 | –
20140 kPa, x1 = 0.4988 | 1155.39 ± 0.4 | –
20750 kPa, x1 = 0.2626 | 1078.17 ± 0.34 | –
20890 kPa, x1 = 0.7501 | 1196.42 ± 0.49 | –
20920 kPa, x1 = 0.1302 | 988.97 ± 0.35 | –
25090 kPa, x1 = 0.2626 | 1080.52 ± 0.34 | –
25120 kPa, x1 = 0.1302 | 991.46 ± 0.35 | –
25410 kPa, x1 = 0.4988 | 1157.92 ± 0.42 | –
25410 kPa, x1 = 0.9102 | 1215.05 ± 0.6 | –
25420 kPa, x1 = 0.0433 | 886.2 ± 0.43 | –
25680 kPa, x1 = 0.7501 | 1198.54 ± 0.52 | –
25770 kPa, x1 = 0.0087 | 826.59 ± 0.52 | –
30080 kPa, x1 = 0.0433 | 889.29 ± 0.49 | –
30080 kPa, x1 = 0.7501 | 1200.46 ± 0.55 | –
30090 kPa, x1 = 0.9102 | 1216.97 ± 0.63 | –
30120 kPa, x1 = 0.2626 | 1083.1 ± 0.35 | –
30410 kPa, x1 = 0.4988 | 1160.24 ± 0.44 | –
30520 kPa, x1 = 0.0087 | 830.16 ± 0.53 | –
31070 kPa, x1 = 0.1302 | 994.78 ± 0.35 | –
35070 kPa, x1 = 0.2626 | 1085.49 ± 0.36 | –
35290 kPa, x1 = 0.7501 | 1202.69 ± 0.58 | –
35420 kPa, x1 = 0.0433 | 892.67 ± 0.44 | –
35560 kPa, x1 = 0.1302 | 997.14 ± 0.35 | –
35740 kPa, x1 = 0.0087 | 833.9 ± 0.54 | –
35740 kPa, x1 = 0.4988 | 1162.61 ± 0.47 | –
39560 kPa, x1 = 0.0433 | 895.16 ± 0.45 | –
39780 kPa, x1 = 0.4988 | 1164.34 ± 0.49 | –
39880 kPa, x1 = 0.0087 | 836.72 ± 0.55 | –
39910 kPa, x1 = 0.7501 | 1204.65 ± 0.62 | –
39910 kPa, x1 = 0.9102 | 1220.87 ± 0.71 | –
39930 kPa, x1 = 0.9102 | 1220.88 ± 0.71 | –
39960 kPa, x1 = 0.2626 | 1087.71 ± 0.37 | –
40120 kPa, x1 = 0.1302 | 999.4 ± 0.35 | –
